Assay [1] concerns the target T1, OsSNAT1 (rice recombinant SNAT1) (Oryza sativa, UniProt Q5KQI6).
T1 construct: N-terminal 83 residues deleted; E. coli, plasmid pET300-Δ83SNAT1; purified recombinant
The experiment in a line: HPLC-fluorescence of N-acetylserotonin formed. The class given is biochemical.

The target of assay [2] is T2, OsSNAT2 (rice recombinant SNAT2) (Oryza sativa, UniProt Q6Z1Y6).
T2 construct: N-terminal 34 residues deleted; purified recombinant
T2 sequence (Q6Z1Y6 35-200): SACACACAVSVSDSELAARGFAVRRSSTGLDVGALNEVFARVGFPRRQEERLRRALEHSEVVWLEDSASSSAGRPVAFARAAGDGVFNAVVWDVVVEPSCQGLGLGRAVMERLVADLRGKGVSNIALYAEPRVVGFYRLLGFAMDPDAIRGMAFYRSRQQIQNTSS
The experiment in a line: HPLC-fluorescence of N-acetylserotonin formed. The assay is classed as biochemical.

T1 sequence (Q5KQI6 84-254): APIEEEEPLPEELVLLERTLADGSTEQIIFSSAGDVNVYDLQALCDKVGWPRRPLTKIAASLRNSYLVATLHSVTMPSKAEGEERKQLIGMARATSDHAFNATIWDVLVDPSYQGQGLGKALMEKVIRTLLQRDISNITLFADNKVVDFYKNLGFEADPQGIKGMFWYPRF

In the case of `CCCCCCCc1ccc(CCc2cccc(O)c2C(=O)O)cc1` [MG149], the inhibition at 50 µM in assay [1] was 80%. Moreover, the inhibition at 100 µM in assay [2] worked out at 28%.

The term inhibition denotes the change of the read-out against control, counted positive when it falls.

These data come from PMC8145546, “Inhibition of Rice Serotonin N-Acetyltransferases by MG149 Decreased Melatonin Synthesis in Rice Seedlings” (Biomolecules, 2021).
